Columns and labels:
Type in all cases: cell-based
[1] = target: T1, human recombinant prostanoid DP1 receptor (Homo sapiens, UniProt Q13258); test: FLIPR Ca2+ signaling, PG antagonist activity, DP; settings: antagonism of standard agonist BW 245C, HEK-293 EBNA stable cells with chimeric Gqs
T1 construct: expressed in transfected cells; co-transfected with chimeric Gqs-HA
T1 sequence (Q13258 1-359): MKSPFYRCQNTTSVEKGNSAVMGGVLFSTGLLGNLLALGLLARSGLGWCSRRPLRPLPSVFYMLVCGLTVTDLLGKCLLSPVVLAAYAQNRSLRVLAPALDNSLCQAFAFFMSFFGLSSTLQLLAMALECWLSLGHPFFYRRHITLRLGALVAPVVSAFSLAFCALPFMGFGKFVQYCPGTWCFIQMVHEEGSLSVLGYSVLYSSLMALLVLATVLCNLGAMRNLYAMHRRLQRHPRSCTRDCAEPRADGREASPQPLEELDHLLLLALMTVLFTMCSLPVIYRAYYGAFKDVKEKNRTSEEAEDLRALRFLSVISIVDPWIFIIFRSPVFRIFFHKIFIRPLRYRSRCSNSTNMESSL
Experimental: (§1) The above compounds were tested for PG antagonist activity as follows using human recombinant prostanoid receptor (DP1, EP1-4, FP, IP and TP) stable cell lines:
(§2) In order to measure the response of Gs and Gi coupled prostanoid receptors as a Ca^2+ signal, chimeric G protein cDNAs were used. Stable cell lines over-expressing human prostanoid DP1, EP1-4, FP, IP, and TP receptors were established as follows:
(§3) Briefly, human prostanoid DP1, EP2, and EP4 receptor cDNAs were co-transfected with chimeric Gqs cDNA containing a haemagglutanin (HA) epitope; human prostanoid EP3 receptors were co-transfected with chimeric Gqi-HA; human EP1, FP, IP, and TP receptor cDNAs were expressed with no exogenous G-proteins. Gqs and Gqi chimeric cDNAs (Molecular Devices, Sunnyvale, Calif., U.S.A.), as well as cDNAs of prostanoid receptors, were cloned into a pCEP4 vector with a hygromycin B selection marker. Transfection into HEK-293 EBNA (Epstein-Barr virus nuclear antigen) cells was achieved by the FuGENE 6 transfection Reagent (Roche Applied Science, Indianapolis, Ind., USA). Stable transfectants were selected according to hygromycin resistance. Because Gqs and Gqi contained an HA epitope, G-protein expression was detected by Western blotting analysis using anti-mouse HA monoclonal antibody and horseradish peroxidase (HRP)-conjugated secondary antibody, while functional expression of prostanoid receptors was detected by FLIPR screening (Matias et al., 2004). These stable cell lines were validated using previously published antagonists at 10 μM against serial dilutions of standard agonists by FLIPR functional assays for Ca^2− Signaling (as described below).
(§4) Ca^2+ signaling studies were performed using a FLIPR TETRA system (Molecular Devices, Sunnyvale, Calif., USA) in the 384-format. This is a high-throughput instrument for cell-based assays to monitor Ca^2+ signaling associated with GPCRs and ion channels. Cells were seeded at a density of 5×10^4 cells/well in BioCoat poly-D-lysine coated, black wall, clear bottom 384-well plates (BD Biosciences, Franklin lakes, N.J., USA) and allowed to attach overnight in an incubator at 37° C. The cells were then washed twice with HBSS-HEPES buffer (Hanks' balanced salt solution without bicarbonate and phenol red, 20 mM HEPES, pH 7.4) using an ELx405 Select CW Microplate Washer (BioTek, Winooski, Vt., USA). After 60 min of dye-loading in the dark using the Ca^2+-sensitive dye Fluo-4AM (Invitrogen, Carlsbad, Calif., USA), at a final concentration of 2×10^−6M, the plates were washed 4 times with HBSS-HEPES buffer to remove excess dye and leaving 50 μl of buffer in each well. The plates were then placed in the FLIPR TETRA instrument and allowed to equilibrate at 37° C. AGN-211377 was added in a 25 μl volume to each well to give final concentrations of 0.1 μM, 0.3 μM, 1 μM, 3 μM, 10 μM, and 30 μM; or 0.067 μM, 0.1 μM, 0.2 μM, 0.3 μM, 0.67 μM, and 1 μM for cells over-expressing TP receptors. After 4.5 minutes, a 7-point serial dilution of the standard agonist for the corresponding receptor, in a 25 μl volume was injected at the final concentrations from 10^−11M to 10^−5M in 10-fold serial dilution increments for cells expressing human recombinant DP1, EP1, EP2, EP3, EP4, FP, and IP receptors. The dose range for the standard agonist for human recombinant TP receptors was from 10^−12M to 10^−6M. HBSS-HEPES buffer was used as the negative control for the standard agonists. Cells were excited with LED (light emitting diode) excitation at 470-495 nm and emission was measured through an emission filter at 515-575 nm. Assay plates were read for 3.5 minutes using the FLIPR^TETRA. The peak increase in fluorescence intensity was recorded for each well. On each plate, negative controls, dose response of positive controls, and co-treatments of antagonist-agonist for each dose were in triplicates. Standard agonists were as follows: DP=BW 245C, EP1-EP4=PGE2, FP=17-phenyl-PGF2α, IP=Cicaprost, and TP=U-46619. […]

[2] = target: T2, human recombinant prostanoid FP receptor (Homo sapiens, UniProt P43088); test: FLIPR Ca2+ signaling, PG antagonist activity, FP; settings: antagonism of standard agonist 17-phenyl-PGF2α, HEK-293 EBNA stable cells
T2 construct: expressed in transfected cells
Experimental: as §1, §2, §3, §4

[3] = target: T3, human recombinant prostanoid EP3 receptor (Homo sapiens, UniProt P43115); test: FLIPR Ca2+ signaling, PG antagonist activity, EP3; settings: antagonism of standard agonist PGE2, HEK-293 EBNA stable cells with chimeric Gqi
T3 construct: expressed in transfected cells; co-transfected with chimeric Gqi-HA
T3 sequence (P43115 1-390): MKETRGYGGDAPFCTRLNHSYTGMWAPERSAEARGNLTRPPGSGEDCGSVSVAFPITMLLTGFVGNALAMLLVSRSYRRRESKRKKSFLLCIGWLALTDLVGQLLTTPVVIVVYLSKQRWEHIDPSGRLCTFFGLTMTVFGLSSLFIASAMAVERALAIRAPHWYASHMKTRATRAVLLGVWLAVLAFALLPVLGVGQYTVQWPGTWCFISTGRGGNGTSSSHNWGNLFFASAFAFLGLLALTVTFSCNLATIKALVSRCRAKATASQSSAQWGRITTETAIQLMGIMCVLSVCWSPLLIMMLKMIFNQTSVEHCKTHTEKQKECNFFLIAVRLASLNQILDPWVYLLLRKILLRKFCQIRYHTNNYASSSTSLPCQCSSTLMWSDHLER
Experimental: as §1, §2, §3, §4

T2 sequence (P43088 whole entry): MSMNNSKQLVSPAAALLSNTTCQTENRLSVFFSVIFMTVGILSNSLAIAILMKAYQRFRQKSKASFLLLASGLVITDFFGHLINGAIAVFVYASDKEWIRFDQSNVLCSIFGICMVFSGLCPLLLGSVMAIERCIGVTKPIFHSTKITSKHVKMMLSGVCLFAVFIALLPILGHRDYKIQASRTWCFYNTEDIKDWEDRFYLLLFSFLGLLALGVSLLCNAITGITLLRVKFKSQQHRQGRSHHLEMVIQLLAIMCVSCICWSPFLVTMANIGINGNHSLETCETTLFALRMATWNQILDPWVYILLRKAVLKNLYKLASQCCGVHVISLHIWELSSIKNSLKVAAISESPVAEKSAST

SMILES | Kb [1] [µM] | Kb [2] [µM] | Kb [3] [µM]
CCC(CC)COc1ccc(Br)cc1Cn1ncc(CC(=O)O)c1C [Example 1, {1-[5-bromo-2-(2-ethyl-butoxy)-benzyl]-5-methyl-1H-pyrazol-4-yl}-acetic acid] | 0.4 | 2.7 | ≥ 10
CCC(CC)COc1ccc(Br)cc1Cn1ncc(C(=O)O)c1C [Example 2, 1-[5-bromo-2-(2-ethyl-butoxy)-benzyl]-5-methyl-1H-pyrazole-4-carboxylic acid] | 0.6 | 0.08 | 6.1
CCC(CC)COc1ccc(Br)cc1Cn1cc(C(=O)O)c(C)n1 [Example 3] | 1.1 | 0.4 | ≥ 10
CCC(CC)COc1ccc(Cl)cc1Cn1cc(C(=O)O)cn1 [Example 4, 1-[5-chloro-2-(2-ethyl-butoxy)-benzyl]-1H-pyrazole-4-carboxylic acid] | 1.4 | 2 | ≥ 10
CCC(CC)COc1ccc(Cl)cc1Cn1nc(C)c(C(=O)O)c1C [Example 5, 1-[5-chloro-2-(2-ethyl-butoxy)-benzyl]-3,5-dimethyl-1H-pyrazole-4-carboxylic acid] | 0.35 | 0.7 | ≥ 10
CCCc1nn(Cc2cc(Cl)ccc2OCC(CC)CC)cc1C(=O)O [Example 6, 1-[5-chloro-2-(2-ethyl-butoxy)-benzyl]-3-propyl-1H-pyrazole-4-carboxylic acid] | 5.6 | ≥ 10 | ≥ 10
CCCc1c(C(=O)O)cnn1Cc1cc(Cl)ccc1OCC(CC)CC [Example 7, 1-[5-chloro-2-(2-ethyl-butoxy)-benzyl]-5-propyl-1H-pyrazole-4-carboxylic acid] | ≥ 10 | ≥ 10 | ≥ 10
CCC(CC)COc1ccc(C(F)(F)F)cc1Cn1ncc(C(=O)O)c1C [Example 8, 1-[2-(2-ethyl-butoxy)-5-trifluoromethyl-benzyl]-5-methyl-1H-pyrazole-4-carboxylic acid] | 1.4 | 0.2 | ≥ 10
CCC(CC)COc1ccc(C(F)(F)F)cc1Cn1cc(C(=O)O)c(C)n1 [Example 9, 1-[2-(2-ethyl-butoxy)-5-trifluoromethyl-benzyl]-3-methyl-1H-pyrazole-4-carboxylic acid] | 3.9 | 7.2 | ≥ 10
CCC(CC)COc1ccc(Cl)cc1Cn1ncc(C(=O)O)c1C [Example 10, 1-[5-chloro-2-(2-ethyl-butoxy)-benzyl]-5-methyl-1H-pyrazole-4-carboxylic acid] | 0.94 | 0.19 | 3.9
Cc1c(C(=O)O)cnn1Cc1cc(Cl)ccc1OCC(C)C [Example 11, 1-(5-chloro-2-isobutoxy-benzyl)-5-methyl-1-pyrazole-4-carboxylic acid] | 4.55 | 0.5 | ≥ 10
Cc1c(C(=O)O)cnn1Cc1cc(Cl)ccc1OCC1CCCC1 [Example 12, 1-(5-chloro-2-cyclopentylmethoxy-benzyl)-5-methyl-1H-pyrazole-4-carboxylic acid] | 2.5 | 0.11 | ≥ 10
Cc1c(C(=O)O)cnn1Cc1cc(Br)ccc1OCC(C)C [Example 13, 1-(5-bromo-2-isobutoxy-benzyl)-5-methyl-1H-pyrazole-4-carboxylic acid] | 3.5 | 0.07 | ≥ 10
Cc1c(C(=O)O)cnn1Cc1cc(Br)ccc1OCC(C)(C)C [Example 14, 1-[5-bromo-2-(2,2-dimethyl-propoxy)-benzyl]-5-methyl-1H-pyrazole-4-carboxylic acid] | 3.4 | 0.09 | ≥ 10
CCC(CC)COc1ccc(OC(F)(F)F)cc1Cn1ncc(C(=O)O)c1C [Example 15, 1-[2-(2-ethyl-butoxy)-5-trifluoromethoxy-benzyl]-5-methyl-1H-pyrazole-4-carboxylic acid] | 0.78 | 0.14 | ≥ 10
CCC(CC)COc1ccc(Br)cc1Cn1ncc(C(=O)O)c1N [Example 16, 5-amino-1-[5-bromo-2-(2-ethyl-butoxy)-benzyl]-1H-pyrazole-4-carboxylic acid] | 1.6 | 0.2 | ≥ 10
